Consider 29 molecules from patent US8158792B2, “Spiropiperidines for use as tryptase inhibitors” (Janssen Pharmaceutica N.V., priority 2007, dated 2012).

The target in the experiment is human lung tryptase. Put plainly: β-Tryptase In-Vitro Enzyme Assay. The experiment is classed as biochemical. As to conditions: human lung tryptase 1 nM, substrate H-D-HHT-Ala-Arg-pNa 500 μM, pH 7.4, room temperature. As to the method: The β-tryptase assay was conducted with human lung tryptase (Cortex Biochem #CP3033) in an aqueous buffer (10 mM Tris, 10 mM Hepes, 150 mM NaCl, 0.1% PEG 8000, pH 7.4) using the chromogenic substrate H-D-HHT-Ala-Arg-pNa. […] Percent inhibition was calculated by comparing the initial reaction velocity of samples without inhibitor to those with inhibitor. The initial reaction velocities were analyzed using Microsoft Excel.
For `NCc1ccc2c(c1)C1(CCN(C(=O)c3ccc(C#Cc4ccccc4)o3)CC1)CN2S(=O)(=O)c1ccc(C(=O)O)o1` [Cpd 337, 1-(5-phenylethynyl-furan-2-yl)carbonyl-1′-(5-carboxy-furan-2-yl)sulfonyl-5′-aminomethyl-spiro[piperidine-4,3′-(2H)-indole]], the IC50 stood at 36 nM.
As to `NCc1ccc2c(c1)C1(CCN(C(=O)/C=C/c3ccncc3)CC1)CO2` [Cpd 244, (E)-1-(pyridin-4-ylethenyl)carbonyl-5′-aminomethyl-spiro[piperidine-4,3′-(2H)-benzo[b]furan]], it took 2500 nM to reach half-maximal inhibition (IC50).
As for `CSc1sc(C(=O)N2CCC3(CC2)CN(S(=O)(=O)O)c2ccc(CN)cc23)c2ccccc12` [Cpd 350, 1-(3-methylthio-benzo[c]thien-1-yl)carbonyl-1′-hydroxysulfonyl-5′-aminomethyl-spiro[piperidine-4,3′-(2H)-indole]], the midpoint of inhibition, the IC50, lay at 25 nM.
Regarding `Cc1nc(C)c(C(=O)N2CCC3(CC2)COc2ccc(CN)cc23)s1` [Cpd 118, 1-(2,4-dimethyl-thiazol-5-yl)carbonyl-5′-aminomethyl-spiro[piperidine-4,3′-(2H)-benzo[b]furan]], the IC50 turned out to be 110 nM.
In the case of `NCc1ccc2c(c1)C1(CCN(C(=O)CC(c3ccccc3)c3ccccc3)CC1)CO2` [Cpd 354, 1-(2,2-diphenylethyl)carbonyl-5′-aminomethyl-spiro[piperidine-4,3′-(2H)-benzo[b]furan]] it was 430 nM.
Regarding `NCc1ccc2c(c1)C1(CCN(C(=O)c3c[nH]c4ccccc34)CC1)CO2` [Cpd 236, 1-indol-3-ylcarbonyl-5′-aminomethyl-spiro[piperidine-4,3′-(2H)-benzo[b]furan]], the IC50 was 750 nM.
In turn, `NCc1ccc2c(c1)C1(CCN(C(=O)/C=C/c3ccc(OCc4ccccc4)cc3)CC1)CO2` [Cpd 300, (E)-1-(4-benzyloxy-phenylethenyl)carbonyl-5′-aminomethyl-spiro[piperidine-4,3′-(2H)-benzo[b]furan]] returned a half-inhibitory concentration (IC50) of 1500 nM.
Molecule `NCc1ccc2c(c1)C1(CCN(C(=O)c3ccc(Br)cc3)CC1)CO2` [Cpd 59, 1-(4-bromo-phenyl)carbonyl-5′-aminomethyl-spiro[piperidine-4,3′-(2H)-benzo[b]furan]] registered a half-inhibitory concentration (IC50) of 360 nM.
The molecule `COc1ccc(-c2ccc(C(=O)N3CCC4(CC3)COc3ccc(CN)cc34)o2)cc1` [Cpd 132, 1-[5-(4-methoxy-phenyl)-furan-2-yl]carbonyl-5′-aminomethyl-spiro[piperidine-4,3′-(2H)-benzo[b]furan]] returned an IC50 of 26 nM.
In turn, `NCc1ccc2c(c1)C1(CCN(C(=O)c3ccc4c(c3)C(=O)c3ccccc3-4)CC1)CO2` [Cpd 8, 1-(9-oxo-fluoren-2-yl)carbonyl-5′-aminomethyl-spiro[piperidine-4,3′-(2H)-benzo[b]furan]] gave an IC50 of 3400 nM.
As to `C/C(=C/c1ccccc1)C(=O)N1CCC2(CC1)COc1ccc(CN)cc12` [Cpd 181, (Z)-1-(1-methyl-2-phenylethenyl)carbonyl-5′-aminomethyl-spiro[piperidine-4,3′-(2H)-benzo[b]furan]], it took 1700 nM to reach half-maximal inhibition (IC50).
Molecule `Cc1ccccc1C#Cc1ccc(C(=O)N2CCC3(CC2)COc2ccc(CN)cc23)o1` [Cpd 153, 1-[5-(2-methyl-phenylethynyl)-furan-2-yl]carbonyl-5′-aminomethyl-spiro[piperidine-4,3′-(2H)-benzo[b]furan]] gave an IC50 of 1.2 nM.
In the case of `Cc1occc1C(=O)NCc1ccc(C(=O)N2CCC3(CC2)COc2ccc(CN)cc23)o1` [Cpd 220, 1-[5-(2-methyl-furan-3-yl-carbonylaminomethyl)-furan-2-yl]carbonyl-5′-aminomethyl-spiro[piperidine-4,3′-(2H)-benzo[b]furan]] it was 690 nM.
As to `Cc1ccc(-c2nc(C)c(C(=O)N3CCC4(CC3)COc3ccc(CN)cc34)s2)cc1` [Cpd 125, 1-[2-(4-methyl-phenyl)-4-methyl-thiazol-5-yl]carbonyl-5′-aminomethyl-spiro[piperidine-4,3′-(2H)-benzo[b]furan]], half-maximal inhibition (IC50) was put at 7500 nM.
`NCCc1ccc2c(c1)C1(CCN(C(=O)c3ccc(C#Cc4ccccc4)o3)CC1)CO2` [Cpd 314, 1-(5-phenylethynyl-furan-2-yl)carbonyl-5′-aminoethyl-spiro[piperidine-4,3′-(2H)-benzo[b]furan]] had an IC50 of 1300 nM.
`CCOC(=O)C(=O)N1CC2(CCN(C(=O)c3ccc(C#Cc4ccccc4)o3)CC2)c2cc(CN)ccc21` [Cpd 329, 1-(5-phenylethynyl-furan-2-yl)carbonyl-1′-(2-ethoxy-1,2-dioxo-ethyl)-5′-aminomethyl-spiro[piperidine-4,3′-(2H)-indole]] returned an IC50 of 44 nM.
Molecule `NCc1ccc2c(c1)C1(CCN(C(=O)c3ccc(C#Cc4ccccc4)o3)CC1)CN2S(N)(=O)=O` [Cpd 342, 1-(5-phenylethynyl-furan-2-yl)carbonyl-1′-aminosulfonyl-5′-aminomethyl-spiro[piperidine-4,3′-(2H)-indole]] gave an IC50 of 5.2 nM.
With `COc1cccc2c1OCC(C(=O)N1CCC3(CC1)COc1ccc(CN)cc13)=C2` [Cpd 197, 1-(8-methoxy-(2H)-chromen-3-yl)carbonyl-5′-aminomethyl-spiro[piperidine-4,3′-(2H)-benzo[b]furan]], the IC50 stood at 230 nM.
With `NCc1ccc2c(c1)C1(CCN(C(=O)[C@@H]3C[C@H]3c3ccccc3)CC1)CO2` (relative stereo) [Cpd 141, 1-(trans-2-phenyl-cyclopropyl)carbonyl-5′-aminomethyl-spiro[piperidine-4,3′-(2H)-benzo[b]furan]], 480 nM corresponded to half-maximal inhibition (IC50).
`NCc1ccc2c(c1)C1(CCN(C(=O)c3cc(C#Cc4ccccc4)ccn3)CC1)CO2` [Cpd 152, 1-[4-phenylethynyl-pyridin-2-yl]carbonyl-5′-aminomethyl-spiro[piperidine-4,3′-(2H)-benzo[b]furan]] came in with an IC50 of 2.3 nM.
As for `CS(=O)(=O)c1cccc(C(=O)N2CCC3(CC2)COc2ccc(CN)cc23)c1` [Cpd 72, 1-(3-methylsulfonyl-phenyl)carbonyl-5′-aminomethyl-spiro[piperidine-4,3′-(2H)-benzo[b]furan]], the midpoint of inhibition, the IC50, lay at 520 nM.
Turning to `NCc1ccc2c(c1)C1(CC2)CCN(C(=O)c2ccc(C#Cc3ccccc3)o2)CC1` [Cpd 318, 1-(5-phenylethynyl-furan-2-yl)carbonyl-5′-aminomethyl-spiro[piperidine-4,3′-indane]], the IC50 is 3.1 nM.
Molecule `COc1cccc2c(C(=O)N3CCC4(CC3)COc3ccc(CN)cc34)sc(SC)c12` [Cpd 235, 1-(3-methylthio-4-methoxy-benzo[c]thien-1-yl)carbonyl-5′-aminomethyl-spiro[piperidine-4,3′-(2H)-benzo[b]furan]] registered an IC50 of 9.2 nM.
As to `NCc1ccc2c(c1)C1(CCN(C(=O)/C=C/c3ccccc3)CC1)CO2` [Cpd 112, (E)-1-(phenylethenyl)carbonyl-5′-aminomethyl-spiro[piperidine-4,3′-(2H)-benzo[b]furan]], the IC50 was 180 nM.
With `CN(C)C(=N)c1ccc2c(c1)C1(CCN(C(=O)c3ccc(C#Cc4ccccc4)o3)CC1)CO2` [Cpd 313, 1-(5-phenylethynyl-furan-2-yl)carbonyl-5′-[dimethylamino(imino)methyl]-spiro[piperidine-4,3′-(2H)-benzo[b]furan]], the IC50 is 140 nM.
The molecule `COc1cccc(CCC(=O)N2CCC3(CC2)COc2ccc(CN)cc23)c1` [Cpd 101, 1-(3-methoxy-phenethyl)carbonyl-5′-aminomethyl-spiro[piperidine-4,3′-(2H)-benzo[b]furan]] gave an IC50 of 2400 nM.
Turning to `NCc1ccc2c(c1)C1(CCN(C(=O)c3ccc(C#Cc4ccccc4)o3)CC1)CN2CCC(=O)O` [Cpd 322, 1-(5-phenylethynyl-furan-2-yl)carbonyl-1′-(2-carboxy-ethyl)-5′-aminomethyl-spiro[piperidine-4,3′-(2H)-indole]], half-maximal inhibition (IC50) required 450 nM.
`NCc1ccc2c(c1)C1(CCN(C(=O)c3cc4ccccc4o3)CC1)CO2` [Cpd 160, 1-benzo[b]furan-2-ylcarbonyl-5′-aminomethyl-spiro[piperidine-4,3′-(2H)-benzo[b]furan]] registered an IC50 of 210 nM.
`CCSc1sc(C(=O)N2CCC3(CC2)COc2ccc(CN)cc23)c2c1C(=O)CC(C)(C)C2` [Cpd 223, 1-(3-ethylthio-4-oxo-6,6-dimethyl-6,7-dihydro-5H-benzo[c]thien-1-yl)carbonyl-5′-aminomethyl-spiro[piperidine-4,3′-(2H)-benzo[b]furan]] came in with a half-inhibitory concentration (IC50) of 21 nM.

A word on the IC50: it is the concentration that gives 50% inhibition. A lower IC50 goes with inhibition by little substance.
